The results in this text go back to patent US20160297820A1, “DIMERIZER COMPOUND” (AGENCY FOR SCIENCE, TECHNOLOGY AND RESEARCH, priority 2013, published 2016).

Each structure is given as a SMILES string. Numbering of substitutions follows the chain as printed.

In one test the target is T1, SNAP-eGFP and CLIP-eGFP (Homo sapiens, UniProt P16455, A121V/A127T/A154D/C150Q/C62A/E30R/G131K/G131N/G132T/G153L/G153S/K125A/K32I/L33F/M134L/M60I/N157G/N157P/Q115S/Q116H/R128A/R135D/R135S/S151G/S152D/S159E/S159L/Y114E).
T1 construct: host or cells: HEK293
T1 sequence (P16455 1-182 E30R/K32I/L33F/C62A/Q115S/Q116H/K125A/A127T/R128A/G131K/G132T/M134L/R135S/C150Q/S151G/S152D/G153L/A154D/N157G/S159E limits assumed): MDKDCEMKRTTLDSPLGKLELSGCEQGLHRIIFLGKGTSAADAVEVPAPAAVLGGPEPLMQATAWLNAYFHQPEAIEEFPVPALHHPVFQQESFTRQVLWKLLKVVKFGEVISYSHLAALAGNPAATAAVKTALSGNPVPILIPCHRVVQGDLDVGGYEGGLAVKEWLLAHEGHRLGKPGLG
T1 sequence (P16455 1-182 E30R/K32I/L33F/M60I/C62A/Y114E/Q115S/Q116H/A121V/K125A/A127T/R128A/G131N/G132T/M134L/R135D/C150Q/S151G/S152D/G153S/A154D/N157P/S159L limits assumed): T1 sequence (P16455 1-182 E30R/K32I/L33F/C62A/Q115S/Q116H/K125A/A127T/R128A/G131K/G132T/M134L/R135S/C150Q/S151G/S152D/G153L/A154D/N157G/S159E limits assumed) with M60I, Y114E, A121V, K131N, S135D, L153S, G157P, E159L
In words: Dimerization of SNAP-eGFP and CLIP-eGFP in transfected HEK293 cells, western blot against eGFP. It counts as cell-based. The source says: Mammalian expression vectors for SNAP-eGFP and CLIP-eGFP were constructed from pSNAPf and pCLIPf (obtained from New England Biolabs of Singapore). eGFP was amplified using primers XhoI eGFP F and NotI eGFP R from pEGFP-NAD. The amplified DNA fragment was digested using XhoI/NotI and cloned into pSNAPf and pCLIPf for C-terminal fused eGFP-SNAP and eGFP-CLIP constructs respectively.
(§1) HEK293 cells were obtained from ATCC and grown in DMEM medium supplemented by 10% FCS and penicillin-streptomycin at 37° C. and 5% carbon dioxide. All experiments performed were carried out in 24 well plates seeded with 1×10^5 cells per well. Transfection was performed with Lipofectamine 2000 (Invitrogen™, Life Technologies of Singapore) as per manufacturer's instructions the day after seeding. Medium was changed the day after transfection.
The dimerizers (or Compounds 1 and 2) were dissolved to 1 mM in DMSO and diluted further with DMSO so all applications were done by adding 4 μl of DMSO with compound 1 dissolved in it to 400 μl of medium for each well. Compound 1 was added at the mentioned concentration two days after transfection and incubated for 3 to 6 hours before the cells were harvested with RIPA Lysis and Extraction buffer (from Thermo Fisher Scientific Inc of Illinois of the United States of America). Compound 2 was added at the mentioned concentration three days after transfection and incubated for a specified duration before the cells were harvested. […]
HEK293 cells were transfected with 250 ng of SNAP-eGFP and CLIP-eGFP. 3 days after transfection, increasing concentrations of 0.1 to 10 μM (0.1 μM, 0.4 μM, 1 μM, 4 μM, and 10 μM) of photocleavable dimerizer (Compound 2) were applied to the cells with fresh medium and the cells were harvested 6 hours after. […] The cleaved samples were equivalent volumes of uncleaved samples subjected to 365 nm illumination for 10 minutes.

For test [1], the system named is SNAP-Gal4 and CLIP-AD2 (firefly luciferase under the control of 9 UAS elements). Description: Luciferase up-regulation through dimerization of SNAP-Gal4 and CLIP-AD2 in transfected HEK293 cells (pGL4.35 reporter). It counts as cell-based. The conditions noted are these: for luciferase expression after UV illumination: 20 μM, 96-well plate, 365 nm UV for 10 minutes just after application, harvested one day after, FIG. 8d; for luciferase production: HEK293, harvested 24 hours after treatment, FIG. 8a.
Excerpt: pGL4.35 (obtained from Promega of Singapore) contains firefly luciferase under the control of 9 UAS elements. SNAP was amplified from pSNAPf with SNAP-XhoI-C and SNAP NheI N; CLIP from pCLIPf with NheI NLC CLIP and SNAP-XhoI-C; Gal4 from pCMV-Gal4 with Gal4 HisTag BamHI and SNAP-Gal4 N; activation domains (AD2) from pHet-Act2-1 with SNAP-p65AD-HSF1AD N and p65 AD-HSF1AD HisTag BamHI. The individual PCR reactions were combined by SOEing PCR (Splicing by Overlap Extension) to make SNAP-Gal4 and CLIP-AD2 PCR products. These were then cloned into peGFP-C1 with the NheI and BamHI sites, removing eGFP in the process. Both constructs contained the nuclear localizing signal.
as §1
The dimerizers (or Compounds 1 and 2) were dissolved to 1 mM in DMSO and diluted further with DMSO so all applications were done by adding 4 μl of DMSO with compound 1 dissolved in it to 400 μl of medium for each well. Compound 1 was added at the mentioned concentration two days after transfection and incubated for 3 to 6 hours before the cells were harvested with RIPA Lysis and Extraction buffer (from Thermo Fisher Scientific Inc of Illinois of the United States of America). Compound 2 was added at the mentioned concentration three days after transfection and incubated for a specified duration before the cells were harvested.
HEK293 cells (in a 24-well plate) transfected with 400 ng pSNAP-Gal4 (Gal4 is a DNA-binding domain fused to SNAP), 200 ng pCLIP-AD2 (AD2 is a transcriptional activator fused to CLIP) and 100 ng pGL4.35 (GL4.35 is a luciferase reporter construct containing nine Gal4 binding motif for gene activation) were treated with stated amounts of either Compound 1 or 2 in 400 μl medium 1 day after transfection. Cells were harvested 24 hours after treatment and the levels of luciferase measured. FIG. 7 is a schematic diagram showing the up-regulation of luciferase.
Here, the cells were transfected as above and 8 μM of compound 2 was added to the cells one day after transfection. One day after, the cells were either illuminated with a fluorescent lamp or with a 365 nm UV lamp for 5 minutes. 0, 6, 24 or 48 hours later, the cells were harvested and the levels of luciferase measured.
The cells were transfected as above and 10 μM of compound 2 was added to the cells one day after transfection. One day after, the cells were illuminated with a 365 nm UV lamp for 10 minutes. […] Experiments were carried out in triplicates. The purpose of this experiment is to use a slightly higher amount of compound 2 and a longer UV irradiation time to optimize the linker cleavage.
HEK293 cells were transfected with the same ratio of plasmids in a 96-well plate and treated with 2% DMSO, 20 μM compound 1 or 20 μM compound 2 one day after transfection. Just after application, some of the cells were illuminated with 365 nm UV for 10 minutes. One day after, the cells were harvested.

As for `Nc1ccnc(OCc2ccc(CNC(=O)NCCOCCOCCOCCNC(=O)CCCC(=O)NCc3ccc(COc4nc(N)nc5[nH]cnc45)cc3)cc2)n1` [Compound 1], at SNAP-eGFP and CLIP-eGFP (HEK293, 5 μM, FIG. 6c), the “stability of the dimer in the cell (no change in dimerization)” value is no less than 3 days, the “time after application to maximal dimerization” value was no more than 24 h and the “time after application to near saturation of dimerization” value stood at 3 h. Also, at SNAP-eGFP and CLIP-eGFP (HEK293, SNAP-eGFP and CLIP-eGFP together vs either alone, 0, 5 or 20 μM, harvested 6 hours after, FIG. 6a), the “dimerization of SNAP-eGFP and CLIP-eGFP (specificity)” value is recorded as “heterodimerization occurred specifically”. For the same compound, at SNAP-eGFP and CLIP-eGFP (HEK293 cells in culture, applied with DMSO), the cell penetration result is “could penetrate cells in culture”. The “concentration at which dimerization occurs” value on SNAP-eGFP and CLIP-eGFP (HEK cells, 0.1 nM to 10,000 nM applied, harvested 3 hours after, FIG. 6b) is recorded as 400 nM. Further, the “dose dependence of heterodimerization” value at SNAP-eGFP and CLIP-eGFP (HEK cells, 0.1 nM to 10,000 nM, harvested 3 hours after, FIG. 6b) is “dose-dependent manner”. Also, in test [1], the “luciferase expression after UV illumination” value was “did not” and the luciferase production result is listed as “produced in a dose-dependent fashion”.

Turning to `COc1cc(C(C)NC(=O)CCCC(=O)NCc2ccc(COc3nc(N)nc4[nH]cnc34)cc2)c([N+](=O)[O-])cc1OCCCC(=O)NCCOCCOCCOCCNC(=O)NCc1ccc(COc2nccc(N)n2)cc1` (stereo not drawn) [Compound 2], the “reversal of dimerization by 365 nm illumination” value on SNAP-eGFP and CLIP-eGFP (365 nm illumination for 10 minutes, FIG. 6d) was “partially reversing dimerization”. Besides, the “induction of dimerization of SNAP-eGFP and CLIP-eGFP” value at SNAP-eGFP and CLIP-eGFP (HEK293, 0.1 to 10 μM, harvested 6 hours after, FIG. 6d) is reported as “could induce dimerization at lower concentrations than compound 1”. Moreover, in test [1] (8 μM, 365 nm UV lamp for 5 minutes, harvested 0, 6, 24 or 48 hours later, FIG. 8b), the “expression of luciferase, UV illumination compared to fluorescent lamp” value was “lower expression of luciferase”. Further, in test [1], the “luciferase expression after UV illumination” value is given as “decreased luciferase expression” and the luciferase production entry is on record as “luciferase was produced”. Besides, the “luciferase upregulation after exposure to UV illumination” value in test [1] (FIG. 8b to FIG. 8d) is reported as “less effective”.
